Source: patent US6844353B2, “Fungicidal properties of sampangine and its analogs to agriculturally important fungal plant pathogens” (The United States of America as represented by the …, priority 2003, dated 2005)

Experiments:
Test in all cases: 96-well microtiter plate assay, fungal growth inhibition
[1] = tested on: C. fragariae; assay type: cell-based, Colletotrichum fragariae; details: C. fragariae
Text: (§1) Pathogen production. Isolates of Colletotrichum acutatum Simmonds, Colletotrichum fragariae Brooks, and Colletotrichum gloeosporioides (Penz.) Penz. & Sacc. in Penz. were obtained from B. J. Smith, USDA, ARS, Small Fruit Research Station, Poplarville, Miss. Colletotrichum fragariae (isolate CF63), C. acutatum (isolate CAGoff), and C. gloeosporioides (isolate CG162) were used for all pathogen and bioautography studies. Isolate CF63 is one of the most virulent isolates at infecting strawberry plants and inducing both crown and fruit rot (Smith and Black, 1990). CF63, CAGoff, and CG162 were used as standard test isolates because of our extensive knowledge of these isolates and their known fungicide sensitivity profiles in both bioautography and microtiter formats. The three Colletotrichum species were isolated from strawberry (Fragaria x ananassa Duchesne). Botrytis cinerea Pers.: Fr, was isolated from commercial grape (Vitis vinifera L.) and Fusarium oxysporum Schlechtend: Fr from orchid (Cynoches sp.). Phomopsis viticola (Sacc.) and P. obscurans (Ellis & Everh.) Sutton were from Mike A. Ellis, Ohio State University, Wooster, Ohio. Fungi were grown on potato-dextrose agar (PDA, Difco, Detroit, Mich.) in 9 cm petri dishes and incubated in a growth chamber at 24±2° C. and under cool-white fluorescent lights ([…]·m^−2·sec^−1 light) with 12 hour photoperiod.
(§2) Inoculum preparation. Conidia were harvested from 7-10 day-old cultures by flooding plates with 5 mL of sterile distilled water and dislodging conidia by softly brushing the colonies with an L-shaped glass rod. Conidial suspensions were filtered through sterile miracloth (Calbiochem-Novabiochem Corp., La Jolla, Calif.) to remove mycelia. Conidia concentrations were determined photometrically, from a standard curve based on the percent of transmittance (% T) at 625 nm and suspensions were then adjusted with sterile distilled water to a concentration of 1.0×10^6 conidia/mL.
(§3) Microtiter assay. A standardized 96-well microtiter plate assay developed for discovery of natural product fungicidal agents was used to evaluate naturally occurring antifungal agents from Macaranga monanara. A 96-well microtiter assay was used to determine sensitivity of B. cinerea, C. acutatum, C. fragariae, C. gloeosporioides, F. oxysporum, Phomopsis viticola, and P. obscurans to the various antifungal agents in comparison with known fungicidal standards. Vinclozolin, captan, and thiabendazole, which represent three different modes of action, were used as standards in this experiment. Each fungus was challenged in a dose-response format using test compounds where the final treatment concentrations were 0.3, 3.0 and 30.0 μM. Microtiter plates (Nunc MicroWell, untreated; Roskilde, Denmark) were covered with a plastic lid and incubated in a growth chamber as described previously for fungal growth. Growth was then evaluated by measuring absorbance of each well at 620 nm using a microplate photometer (Packard Spectra Count, Packard Instrument Co., Downers Grove, Ill.). Microtiter plates (Nunc MicroWell, untreated; Roskilde, Denmark) were covered with a plastic lid and incubated in a growth chamber at 24±1° C. and 12 hour photoperiod under 60±5 μmol light. Growth was then evaluated by measuring absorbance of each well at 620 nm using a microplate photometer (Packard Spectra Count, Packard Instrument Co., Downers Grove, Ill.).
(§4) Microbioassy Experimental Design. Chemical sensitivity each of B. cinerea, C. acutatum, C. fragariae, C. gloeosporiodes, F. oxysporum, Phomopsis viticola, and P. obscurans was evaluated using 96-well plate microbioassay format. Each chemical was evaluated in duplicate at each dose (0.3, 3.0 and 30.0 μM). […]

[2] = tested on: B. cinerea; assay type: cell-based, Botrytis cinerea; details: B. cinerea
Text: as §1, §2, §3, §4

[3] = tested on: C. acutatum; assay type: cell-based, Colletotrichum acutatum; details: C. acutatum
Text: as §1, §2, §3, §4

[4] = tested on: C. gloeosporioides; assay type: cell-based, Colletotrichum gloeosporioides; details: C. gloeosporioides
Text: as §1, §2, §3, §4

[5] = tested on: F. oxysporum; assay type: cell-based, Fusarium oxysporum; details: F. oxysporum
Text: as §1, §2, §3, §4

SMILES | Percent inhibition−Percent Stimulation±SEM ([1]; 0.3 μM, 48 hrs) [%] | Percent inhibition−Percent Stimulation±SEM ([1]; 0.3 μM, 72 hrs) [%] | Percent inhibition−Percent Stimulation±SEM ([1]; 3.0 μM, 48 hrs) [%] | Percent inhibition−Percent Stimulation±SEM ([1]; 3.0 μM, 72 hrs) [%] | Percent inhibition−Percent Stimulation±SEM ([1]; 30 μM, 48 hrs) [%] | Percent inhibition−Percent Stimulation±SEM ([1]; 30 μM, 72 hrs) [%] | Percent inhibition−Percent Stimulation±SEM ([2]; 0.3 μM, 48 hrs) [%] | Percent inhibition−Percent Stimulation±SEM ([2]; 0.3 μM, 72 hrs) [%] | Percent inhibition−Percent Stimulation±SEM ([2]; 3.0 μM, 48 hrs) [%] | Percent inhibition−Percent Stimulation±SEM ([2]; 3.0 μM, 72 hrs) [%] | Percent inhibition−Percent Stimulation±SEM ([2]; 30 μM, 48 hrs) [%] | Percent inhibition−Percent Stimulation±SEM ([2]; 30 μM, 72 hrs) [%] | Percent inhibition−Percent Stimulation±SEM ([3]; 0.3 μM, 48 hrs) [%] | Percent inhibition−Percent Stimulation±SEM ([3]; 0.3 μM, 72 hrs) [%] | Percent inhibition−Percent Stimulation±SEM ([3]; 3.0 μM, 48 hrs) [%] | Percent inhibition−Percent Stimulation±SEM ([3]; 3.0 μM, 72 hrs) [%] | Percent inhibition−Percent Stimulation±SEM ([3]; 30 μM, 48 hrs) [%] | Percent inhibition−Percent Stimulation±SEM ([3]; 30 μM, 72 hrs) [%] | Percent inhibition−Percent Stimulation±SEM ([4]; 0.3 μM, 48 hrs) [%] | Percent inhibition−Percent Stimulation±SEM ([4]; 0.3 μM, 72 hrs) [%] | also measured
O=C1c2ccccc2-c2nccc3c(Br)cnc1c23 [4-bromosampangine] | −46.3 ± 5.0 | −15.2 ± 8.2 | −87.3 ± 2.0 | −45.8 ± 5.6 | −55.9 ± 7.1 | −26.7 ± 7.3 | −41.1 ± 9.4 | −22.6 ± 13.7 | −59.2 ± 6.7 | −38.8 ± 9.4 | −29.7 ± 9.7 | 2.5 ± 8.9 | −23.3 ± 8.0 | −7.1 ± 6.3 | −73.4 ± 6.8 | −24.9 ± 8.7 | −33.4 ± 6.9 | −10.5 ± 6.7 | −100.0 ± 1.5 | −99.0 ± 0.6 | Percent inhibition−Percent Stimulation±SEM ([4]; 3.0 μM, 48 hrs): −98.9 ± 0.5%; Percent inhibition−Percent Stimulation±SEM ([4]; 3.0 μM, 72 hrs): −99.1 ± 0.4%; Percent inhibition−Percent Stimulation±SEM ([4]; 30 μM, 48 hrs): −96.0 ± 1.4%; Percent inhibition−Percent Stimulation±SEM ([4]; 30 μM, 72 hrs): −99.7 ± 0.4%; Percent inhibition−Percent Stimulation±SEM ([5]; 0.3 μM, 48 hrs): −20.4 ± 4.6%; Percent inhibition−Percent Stimulation±SEM ([5]; 0.3 μM, 72 hrs): −2.8 ± 1.9%; Percent inhibition−Percent Stimulation±SEM ([5]; 3.0 μM, 48 hrs): −42.3 ± 4.5%; Percent inhibition−Percent Stimulation±SEM ([5]; 3.0 μM, 72 hrs): −14.0 ± 2.1%; Percent inhibition−Percent Stimulation±SEM ([5]; 30 μM, 48 hrs): −25.8 ± 2.6%; Percent inhibition−Percent Stimulation±SEM ([5]; 30 μM, 72 hrs): −9.1 ± 3.0%
COc1cnc2c3c(nccc13)-c1ccccc1C2=O [4-methoxysampangine] | −15.0 ± 7.5 | −30.2 ± 7.4 | −75.2 ± 6.7 | −44.3 ± 6.5 | −67.9 ± 13.6 | −39.6 ± 6.3 | −23.0 ± 14.4 | −4.8 ± 12.6 | −59.2 ± 6.7 | −18.4 ± 5.4 | −20.3 ± 21.8 | 19.0 ± 14.3 | −5.1 ± 7.8 | −0.3 ± 6.4 | −75.1 ± 6.8 | −44.1 ± 6.5 | −51.3 ± 6.2 | −25.4 ± 5.4 | −48.5 ± 6.7 | −15.6 ± 1.9 | Percent inhibition−Percent Stimulation±SEM ([4]; 3.0 μM, 48 hrs): −94.4 ± 0.9%; Percent inhibition−Percent Stimulation±SEM ([4]; 3.0 μM, 72 hrs): −91.1 ± 2.1%; Percent inhibition−Percent Stimulation±SEM ([4]; 30 μM, 48 hrs): −95.9 ± 3.4%; Percent inhibition−Percent Stimulation±SEM ([4]; 30 μM, 72 hrs): −79.7 ± 6.0%; Percent inhibition−Percent Stimulation±SEM ([5]; 0.3 μM, 48 hrs): −10.3 ± 4.7%; Percent inhibition−Percent Stimulation±SEM ([5]; 0.3 μM, 72 hrs): 2.9 ± 4.2%; Percent inhibition−Percent Stimulation±SEM ([5]; 3.0 μM, 48 hrs): −66.8 ± 5.5%; Percent inhibition−Percent Stimulation±SEM ([5]; 3.0 μM, 72 hrs): −33.5 ± 1.9%; Percent inhibition−Percent Stimulation±SEM ([5]; 30 μM, 48 hrs): −43.6 ± 2.7%; Percent inhibition−Percent Stimulation±SEM ([5]; 30 μM, 72 hrs): −23.5 ± 1.6%
